# Assay results taken from patent US10919902B2, “Hetero-halo inhibitors of histone deacetylase” (Alkermes, Inc., priority 2015, dated 2021).
# Biological target: recombinant human HDACs (Homo sapiens)
# Experiment: HDAC enzymatic assay
# Assay type: biochemical
# Settings: 5 nM HDAC enzyme, 5 h pre-incubation, 17 h reaction at 25° C.; isoform not given; read-out: IC50
# Protocol: All recombinant human HDACs were purchased from BPS Bioscience. The substrate, FAM-TSRHK(AC)KL-CONH, was synthesized at NanoSyn. Final assay reactions contained 100 mM HEPES (pH 7.5), 50 mM KCl, 0.1% BSA, 0.01% Triton X-100, 1% DMSO, 1 uM substrate and 5 nM HDAC enzyme. Enzyme and compounds were pre-incubated at 25° C. for 5 hours and reactions were initiated by addition of substrate. 10 uL reactions were incubated for 17 hours at 25° C. and terminated by the addition of 40 uL of buffer containing 100 mM HEPES (pH 7.5), 0.1% BSA, 0.01% Triton X-100 and 0.05% SDS. Substrate and product peptides present in each sample were separated electrophoretically using the LabChip 3000 capillary electrophoresis instrument. Change in the relative fluorescence intensity of the substrate and product peaks reflects enzyme activity. Reaction progress was determined as the product to sum ratio (PSR):P/(S+P), where P is the peak height of the product peptide and S is the peak height of the substrate peptide. Reactions were performed in duplicate at 12 concentrations, (3× serial dilutions starting at 30 uM). IC50 values were calculated using a 4 Parameter Logistic Model.
row,Structure (SMILES),IC50 [nM]
1,Cn1cc(CN2CCCC3(CCN(C(=O)Nc4nn(-c5ccc(F)cc5)cc4N)C3)C2)cn1 (centres unmarked) [Compound 123],> 5000
2,COc1cccc(CN2CCCC3(CCN(C(=O)Nc4nn(-c5ccc(F)cc5)cc4N)C3)C2)c1 (centres unmarked) [Compound 124],> 5000
3,Nc1cn(-c2ccc(F)cc2)nc1NC(=O)N1CCN(C(=O)[C@@H]2C[C@H]2c2ccccc2)CC1 [Compound 125],500 to 5000
4,Cc1cnc(C(=O)Nc2nn(-c3ccccc3)cc2N)s1 [Compound 126],500 to 5000
5,Nc1ccc(-c2ccc(F)cc2)nc1NC(=O)N1CC2CC(N3CCC3)CC2C1 (centres unmarked) [Compound 143],500 to 5000
6,Nc1ccc(-c2cccs2)nc1NC(=O)N1Cc2cc(CN3CCCC3)cnc2C1 [Compound 144],100 to 500
7,CN(C)Cc1cnc2c(c1)CN(C(=O)Nc1nc(-c3cccs3)ccc1N)C2 [Compound 145],100 to 500
8,CN(C)Cc1ccc(C2CN(C(=O)Nc3nc(-c4ccc(F)cc4)ccc3N)C2)cc1 [Compound 146],100 to 500
9,Nc1ccc(-c2ccc(F)cc2)nc1NC(=O)N1Cc2cnc(N3CCC3)cc2C1 [Compound 147],100 to 500
10,CN1CCC(c2cc3c(cn2)CN(C(=O)Nc2nc(-c4ccc(F)cc4)ccc2N)C3)CC1 [Compound 149],100 to 500
11,Nc1ccc(-c2ccc(F)cc2)nc1NC(=O)N1Cc2cnc(N3CCOCC3)cc2C1 [Compound 150],100 to 500
12,Cc1cc2c(cn1)CN(C(=O)Nc1nc(-c3ccc(F)cc3)ccc1N)C2 [Compound 151],100 to 500
13,CN1CC(N2CC3CN(C(=O)Nc4nc(-c5ccc(F)cc5)ccc4N)CC3C2)C1 (centres unmarked) [Compound 152],500 to 5000
14,CN1CCc2sc(C(=O)Nc3nc(-c4ccc(F)cc4)ccc3N)nc2C1 [Compound 153],100 to 500
15,CN(C)Cc1cnc2c(c1)CN(C(=O)Nc1nc(-c3ccc(F)cc3)ccc1N)C2 [Compound 154],100 to 500
16,Nc1ccc(-c2ccc(F)cc2)nc1NC(=O)N1Cc2cc(CN3CCCC3)cnc2C1 [Compound 155],100 to 500
17,Nc1ccc(-c2cccs2)nc1NC(=O)N1Cc2nccnc2C1 [Compound 156],100 to 500
18,Nc1ccc(-c2ccc(F)cc2)nc1NC(=O)N1Cc2cc(N3CCC3)cnc2C1 [Compound 157],100 to 500
19,Nc1ccc(-c2ccc(F)cc2)nc1NC(=O)N1Cc2cc(N3CCOCC3)cnc2C1 [Compound 158],100 to 500
20,CN1CCN(c2cnc3c(c2)CN(C(=O)Nc2nc(-c4ccc(F)cc4)ccc2N)C3)CC1 [Compound 159],100 to 500
21,CN1CCN(c2cc3c(cn2)CN(C(=O)Nc2nc(-c4ccc(F)cc4)ccc2N)C3)CC1 [Compound 160],100 to 500

row,Structure (SMILES),IC50 [nM]
1,CN(C)Cc1cnc2c(c1)CN(C(=O)Nc1nc(-c3cccnc3)ccc1N)C2 [Compound 161],100 to 500
2,CN(C)Cc1cc2c(cn1)CN(C(=O)Nc1nc(-c3ccc(F)cc3)ccc1N)C2 [Compound 162],100 to 500
3,CN1CCc2sc(C(=O)Nc3nc(-c4ccco4)ccc3N)nc2C1 [Compound 163],100 to 500
4,Nc1ccc(-c2cccnc2)nc1NC(=O)c1nc2c(s1)CCN(CCF)C2 [Compound 164],500 to 5000
5,Nc1ccc(-c2ccc(F)cc2)nc1NC(=O)c1nc2c(s1)CCN(CCF)C2 [Compound 165],100 to 500
6,CN(C)CCN1CC2CN(C(=O)Nc3nc(-c4ccc(F)cc4)ccc3N)CC2C1 (centres unmarked) [Compound 166],500 to 5000
7,Nc1ccc(-n2cccn2)nc1NC(=O)N1CC2CN(CCF)CC2C1 (centres unmarked) [Compound 167],> 5000
8,CN1CCN(Cc2cnc3c(c2)CN(C(=O)Nc2nc(-c4ccc(F)cc4)ccc2N)C3)CC1 [Compound 168],100 to 500
9,CN1CCC(N2CC3CN(C(=O)Nc4nc(-c5ccc(F)cc5)ccc4N)CC3C2)CC1 (centres unmarked) [Compound 169],500 to 5000
10,Cc1ccc(C2CN(C(=O)Nc3nc(-c4ccc(F)cc4)ccc3N)C2)cc1 [Compound 170],500 to 5000
11,Nc1ccc(-c2cccnc2)nc1NC(=O)N1CCC2(CCCNC2)C1 (centres unmarked) [Compound 171],> 5000
12,Nc1ccc(-c2ccc(F)cc2)nc1NC(=O)N1CC2CC(NC3COC3)CC2C1 (centres unmarked) [Compound 172],500 to 5000
13,COc1ccc(-c2ccc(N)c(NC(=O)N3Cc4ccncc4C3)n2)cc1 [Compound 173],500 to 5000
14,Nc1ccc(-c2ccco2)nc1NC(=O)N1CC2CN(CCF)CC2C1 (centres unmarked) [Compound 174],> 5000
15,Nc1ccc(-c2ccco2)nc1NC(=O)N1CC2CN(Cc3ccccc3F)CC2C1 (centres unmarked) [Compound 175],> 5000
16,Nc1ccc(-c2ccc(F)cc2)nc1NC(=O)N1CC2CN(Cc3ccccc3F)CC2C1 (centres unmarked) [Compound 176],500 to 5000
17,Nc1ccc(-n2cccn2)nc1NC(=O)N1CC2CN(Cc3ccccc3F)CC2C1 (centres unmarked) [Compound 177],> 5000
18,CN1CCN(Cc2cccc3c2CN(C(=O)Nc2nc(-c4ccc(F)cc4)ccc2N)C3)CC1 [Compound 178],> 5000
19,CN1CCN(C2CC3CN(C(=O)Nc4nc(-c5ccc(F)cc5)ccc4N)CC3C2)CC1 (centres unmarked) [Compound 179],500 to 5000
20,Nc1ccc(-c2ccc(F)cc2)nc1NC(=O)N1CC2CC(N3CCOCC3)CC2C1 (centres unmarked) [Compound 181],> 5000
21,Nc1ccc(-c2ccco2)nc1NC(=O)N1CC2CN(C3COC3)CC2C1 (centres unmarked) [Compound 182],> 5000

row,Structure (SMILES),IC50 [nM]
1,Nc1ccc(-c2ccc(F)cc2)nc1NC(=O)N1CC2CN(CCF)CC2C1 (centres unmarked) [Compound 183],> 5000
2,CN1CC2CN(C(=O)Nc3nc(-n4cccn4)ccc3N)CC2C1 (centres unmarked) [Compound 184],> 5000
3,Nc1ccc(-n2cccn2)nc1NC(=O)N1Cc2cc(F)cnc2C1 [Compound 185],500 to 5000
4,Nc1ccc(-c2ccc(F)cc2)nc1NC(=O)N1Cc2cc(F)cnc2C1 [Compound 186],500 to 5000
5,COc1ccc(-c2ccc(N)c(NC(=O)N3Cc4cc(F)cnc4C3)n2)cc1 [Compound 187],500 to 5000
6,Nc1ccc(-c2ccc(F)cc2)nc1NC(=O)N1CC2CC(N3CC(F)C3)CC2C1 (centres unmarked) [Compound 188],500 to 5000
7,Nc1ccc(-c2ccco2)nc1NC(=O)N1CC2CC(N3CC(F)C3)CC2C1 (centres unmarked) [Compound 189],> 5000
8,Nc1ccc(-n2cccn2)nc1NC(=O)N1CC2CC(N3CC(F)C3)CC2C1 (centres unmarked) [Compound 190],> 5000
9,Nc1ccc(-c2ccccc2)nc1NC(=O)N1CC2CC(NC3COC3)CC2C1 (centres unmarked) [Compound 191],500 to 5000
10,Nc1ccc(-c2ccc(F)cc2)nc1NC(=O)C1CN(c2ccccn2)C1 [Compound 192],> 5000
11,Nc1ccc(-c2ccco2)nc1NC(=O)C1CN(c2ccccn2)C1 [Compound 193],> 5000
12,Nc1ccc(-c2ccccc2)nc1NC(=O)CN1CCn2cncc2C1 [Compound 194],> 5000
13,Nc1ccc(-c2ccccc2)nc1NC(=O)C1CN(c2ccccn2)C1 [Compound 195],> 5000
14,CC(=O)N1CCN(CC(=O)Nc2nc(-c3ccccc3)ccc2N)CC1 [Compound 196],> 5000
15,Nc1ccc(-c2ccccc2)nc1NC(=O)N1CCn2ccnc2C1 [Compound 197],> 5000
16,Nc1ccc(-c2ccco2)nc1NC(=O)C1CN(Cc2ccccc2)C1 [Compound 198],> 5000
17,Nc1ccc(-c2ccccc2)nc1NC(=O)N1CC2CN(C3COC3)CC2C1 (centres unmarked) [Compound 199],> 5000
18,CN1CC2CN(C(=O)Nc3nc(-c4ccc(F)cc4)ccc3N)CC2C1 (centres unmarked) [Compound 201],> 5000
19,Nc1ccc(-c2ccc(F)cc2)nc1NC(=O)N1CC2CN(C3COC3)CC2C1 (centres unmarked) [Compound 203],> 5000
20,CN1CC(C(=O)Nc2nc(-c3ccc(F)cc3)ccc2N)C1 [Compound 204],> 5000
